Values belong to the compound of their own block, whether it stands above or below them.
Assays:
[1] = test system: SJSA-1 osteosarcoma cell line (MDM2-amplified, wild-type p53); assay type: cell-based, human; conditions: SJSA-1 cells, 50 μM VIP116, 2 h incubation
[2] = test system: SJSA-1 human osteosarcoma xenografts; experiment: Tumor uptake and tissue distribution in mice bearing SJSA-1 xenografts; assay type: in vivo, athymic mice
[3] = Lipophilicity, shake-flask n-octanol/PBS; assay type: physicochemical; conditions: n-octanol/phosphate-buffered saline, pH 7.4
[4] = Tumor uptake and tissue distribution in mice bearing SJSA-1 xenografts; assay type: in vivo, athymic mice; conditions: athymic, mouse, iv, 166.5 kBq, total radioactivity
MDM2 = conditions: read-out: binding affinity towards MDM2 (Kd); ref 22 (Thean et al.); cited from earlier work
[5] = In vivo metabolic stability; conditions: athymic mice without tumors, i.v., plasma 4 h post-injection; RP-HPLC; n = 2/time point

Blood radioactivity ([2]; 30 min after i.v. injection, n = 5): 8.33 ± 1.18 %ID/g
radioactivity found in the urine ([2]; 2 h after i.v. injection (data not shown)): ≤ 0.93 % ID
Tumor uptake (SJSA-1 xenograft) ([2]; 2 h after i.v. injection, n = 5): 2.19 ± 0.56 %ID/g
Structure (SMILES): CC(=O)N[C@@H](CCCCNC(=O)c1cccc(I)c1)C(=O)NCCCCCC(=O)N[C@H](C(=O)N[C@@H](CO)C(=O)N[C@@H](Cc1ccccc1)C(=O)N[C@]1(C)CCCCCCC=CCCC[C@@](C)(C(=O)N[C@@H](CCC(=O)O)C(=O)N[C@@H](CC(N)=O)C(=O)N[C@@H](Cc2ccccc2)C(N)=O)NC(=O)[C@H](CC(C)C)NC(=O)[C@H](CC(C)C)NC(=O)[C@H](C)NC(=O)[C@H](Cc2c[nH]c3ccccc23)NC(=O)[C@H](Cc2ccc(O)cc2)NC(=O)[C@H](CCC(=O)O)NC1=O)[C@@H](C)O [[^125I]SIB-VIP116] [listing 1 of 2 here]
blocking of cell uptake [1]: > 85%

logD [3]: 1.45 ± 0.05
tissue uptake at 0.5 h ([4]; bladder): 0.61 ± 0.21 %ID/g
tissue uptake at 2 h ([4]; bladder): 0.58 ± 0.34 %ID/g
tissue uptake at 6 h ([4]; bladder): 0.95 ± 0.78 %ID/g
tissue uptake at 24 h ([4]; bladder): 0.29 ± 0.09 %ID/g
tissue uptake at 2 h ([4]; blood): 6.84 ± 1.92 %ID/g
tissue uptake at 6 h ([4]; blood): 5.12 ± 0.9 %ID/g
tissue uptake at 24 h ([4]; blood): 0.62 ± 0.2 %ID/g
tissue uptake at 0.5 h ([4]; bone): 0.38 ± 0.19 %ID/g
tissue uptake at 2 h ([4]; bone): 0.33 ± 0.23 %ID/g
tissue uptake at 6 h ([4]; bone): 0.29 ± 0.2 %ID/g
tissue uptake at 24 h ([4]; bone): 0.16 ± 0.04 %ID/g
tissue uptake at 0.5 h ([4]; brain): 0.24 ± 0.13 %ID/g
tissue uptake at 2 h ([4]; brain): 0.25 ± 0.08 %ID/g
tissue uptake at 6 h ([4]; brain): 0.2 ± 0.06 %ID/g
tissue uptake at 24 h ([4]; brain): 0.02 ± 0.01 %ID/g
tissue uptake at 0.5 h ([4]; heart): 2.52 ± 0.49 %ID/g
tissue uptake at 2 h ([4]; heart): 2.44 ± 0.49 %ID/g
tissue uptake at 6 h ([4]; heart): 2.14 ± 0.38 %ID/g
tissue uptake at 24 h ([4]; heart): 0.37 ± 0.08 %ID/g
tissue uptake at 0.5 h ([4]; kidneys): 3.06 ± 1.82 %ID/g
tissue uptake at 2 h ([4]; kidneys): 2.54 ± 0.5 %ID/g
tissue uptake at 6 h ([4]; kidneys): 2.5 ± 0.48 %ID/g
tissue uptake at 24 h ([4]; kidneys): 0.63 ± 0.12 %ID/g
tissue uptake at 0.5 h ([4]; large intestine): 0.06 ± 0.06 %ID/g
tissue uptake at 2 h ([4]; large intestine): 0.24 ± 0.2 %ID/g
tissue uptake at 6 h ([4]; large intestine): 4.44 ± 1.9 %ID/g
tissue uptake at 24 h ([4]; large intestine): 1.87 ± 1.29 %ID/g
tissue uptake at 0.5 h ([4]; liver): 13.5 ± 6.18 %ID/g
tissue uptake at 2 h ([4]; liver): 18.4 ± 1.45 %ID/g
tissue uptake at 6 h ([4]; liver): 11.4 ± 4.46 %ID/g
tissue uptake at 24 h ([4]; liver): 4.72 ± 2.84 %ID/g
tissue uptake at 0.5 h ([4]; lungs): 4.27 ± 1.06 %ID/g
tissue uptake at 2 h ([4]; lungs): 2.72 ± 1.16 %ID/g
tissue uptake at 6 h ([4]; lungs): 2.49 ± 1.17 %ID/g
tissue uptake at 24 h ([4]; lungs): 0.33 ± 0.19 %ID/g
tissue uptake at 0.5 h ([4]; muscle): 0.16 ± 0.06 %ID/g
tissue uptake at 2 h ([4]; muscle): 0.24 ± 0.07 %ID/g
tissue uptake at 6 h ([4]; muscle): 0.25 ± 0.11 %ID/g
tissue uptake at 24 h ([4]; muscle): 0.16 ± 0.09 %ID/g
tissue uptake at 0.5 h ([4]; skin): 0.57 ± 0.17 %ID/g
tissue uptake at 2 h ([4]; skin): 0.88 ± 0.18 %ID/g
tissue uptake at 6 h ([4]; skin): 1.22 ± 0.47 %ID/g
tissue uptake at 24 h ([4]; skin): 0.52 ± 0.13 %ID/g
tissue uptake at 0.5 h ([4]; small intestine): 0.43 ± 0.09 %ID/g
tissue uptake at 2 h ([4]; small intestine): 2.17 ± 0.99 %ID/g
tissue uptake at 6 h ([4]; small intestine): 3.84 ± 1.29 %ID/g
tissue uptake at 24 h ([4]; small intestine): 0.86 ± 0.35 %ID/g
tissue uptake at 0.5 h ([4]; spleen): 1.29 ± 0.61 %ID/g
tissue uptake at 2 h ([4]; spleen): 1.8 ± 0.65 %ID/g
tissue uptake at 6 h ([4]; spleen): 1.99 ± 0.44 %ID/g
tissue uptake at 24 h ([4]; spleen): 0.58 ± 0.24 %ID/g
tissue uptake at 0.5 h ([4]; stomach): 0.34 ± 0.09 %ID/g
tissue uptake at 2 h ([4]; stomach): 0.53 ± 0.17 %ID/g
tissue uptake at 6 h ([4]; stomach): 1.9 ± 1.15 %ID/g
tissue uptake at 24 h ([4]; stomach): 0.84 ± 0.43 %ID/g
tissue uptake at 0.5 h ([4]; thyroid): 0.89 ± 0.17 %ID/g
tissue uptake at 2 h ([4]; thyroid): 1.14 ± 0.43 %ID/g
tissue uptake at 6 h ([4]; thyroid): 1.19 ± 0.36 %ID/g
tissue uptake at 24 h ([4]; thyroid): 0.27 ± 0.14 %ID/g
tissue uptake at 0.5 h ([4]; tumor): 1.8 ± 0.75 %ID/g
tissue uptake at 6 h ([4]; tumor): 2.11 ± 0.29 %ID/g
tissue uptake at 24 h ([4]; tumor): 0.36 ± 0.12 %ID/g
Structure (SMILES): CC(=O)N[C@@H](CCCCNC(=O)c1cccc(I)c1)C(=O)NCCCCCC(=O)N[C@H](C(=O)N[C@@H](CO)C(=O)N[C@@H](Cc1ccccc1)C(=O)N[C@]1(C)CCCCCCC=CCCC[C@@](C)(C(=O)N[C@@H](CCC(=O)O)C(=O)N[C@@H](CC(N)=O)C(=O)N[C@@H](Cc2ccccc2)C(N)=O)NC(=O)[C@H](CC(C)C)NC(=O)[C@H](CC(C)C)NC(=O)[C@H](C)NC(=O)[C@H](Cc2c[nH]c3ccccc23)NC(=O)[C@H](Cc2ccc(O)cc2)NC(=O)[C@H](CCC(=O)O)NC1=O)[C@@H](C)O [[^125I]SIB-VIP116] [listing 2 of 2 here]

Structure (SMILES): CC(=O)N[C@@H](CCCCN)C(=O)NCCCCCC(=O)N[C@H](C(=O)N[C@@H](CO)C(=O)N[C@@H](Cc1ccccc1)C(=O)N[C@]1(C)CCCCCCC=CCCC[C@@](C)(C(=O)N[C@@H](CCC(=O)O)C(=O)N[C@@H](CC(N)=O)C(=O)N[C@@H](Cc2ccccc2)C(N)=O)NC(=O)[C@H](CC(C)C)NC(=O)[C@H](CC(C)C)NC(=O)[C@H](C)NC(=O)[C@H](Cc2c[nH]c3ccccc23)NC(=O)[C@H](Cc2ccc(O)cc2)NC(=O)[C@H](CCC(=O)O)NC1=O)[C@@H](C)O [VIP116]
Kd (MDM2): 15.1 ± 1.7 nM

tissue uptake at 0.5 h ([4]; blood): 8.33 ± 1.18 %ID/g
tissue uptake at 2 h ([4]; tumor): 2.19 ± 0.56 %ID/g
Structure (SMILES): CC(=O)N[C@@H](CCCCNC(=O)c1cccc(I)c1)C(=O)NCCCCCC(=O)N[C@H](C(=O)N[C@@H](CO)C(=O)N[C@@H](Cc1ccccc1)C(=O)N[C@]1(C)CCCCCCC=CCCC[C@@](C)(C(=O)N[C@@H](CCC(=O)O)C(=O)N[C@@H](CC(N)=O)C(=O)N[C@@H](Cc2ccccc2)C(N)=O)NC(=O)[C@H](CC(C)C)NC(=O)[C@H](CC(C)C)NC(=O)[C@H](C)NC(=O)[C@H](Cc2c[nH]c3ccccc23)NC(=O)[C@H](Cc2ccc(O)cc2)NC(=O)[C@H](CCC(=O)O)NC1=O)[C@@H](C)O [[*I]SIB-VIP116] [listing 1 of 2 here]

% of radioactivity in plasma as intact labeled peptide [5]: about 80%
Structure (SMILES): CC(=O)N[C@@H](CCCCNC(=O)c1cccc(I)c1)C(=O)NCCCCCC(=O)N[C@H](C(=O)N[C@@H](CO)C(=O)N[C@@H](Cc1ccccc1)C(=O)N[C@]1(C)CCCCCCC=CCCC[C@@](C)(C(=O)N[C@@H](CCC(=O)O)C(=O)N[C@@H](CC(N)=O)C(=O)N[C@@H](Cc2ccccc2)C(N)=O)NC(=O)[C@H](CC(C)C)NC(=O)[C@H](CC(C)C)NC(=O)[C@H](C)NC(=O)[C@H](Cc2c[nH]c3ccccc23)NC(=O)[C@H](Cc2ccc(O)cc2)NC(=O)[C@H](CCC(=O)O)NC1=O)[C@@H](C)O [[*I]SIB-VIP116] [listing 2 of 2 here]
